Like-named read-outs stand apart in the source and are kept apart here.
How the values were obtained:
[1] = Plasma pharmacokinetics after single IV and PO dosing; assay type: in vivo, female CD1 mice; settings: female, CD-1, mouse, plasma; for AUC(0-inf): read-out: AUC(0-inf)
Procedure: 5. In vivo Pharmacokinetics (PK) Determination: These studies were Performed by Charles River Laboratories (CRL), Discovery Services, 251 Ballardvale Street, Wilmington, MA 01887, USA.
The PK studies were performed according to the guidelines and approval of CRL Institutional Animal Care and Use Committee (IACUC) under IACUC approval no: P04172013.
A total of sixty‐four naïve female CD‐1 mice (including 6 spare animals) were received from Charles River Laboratories, Kingston, NY. Following an acclimation period, the animals were assigned to the study based on acceptable health as determined by a staff veterinarian. For dosing, animals were placed into six groups as detailed in the study design table below. All animals were fasted overnight prior to dosing and food was returned after the 4‐h post‐dose blood collections.
Each animal in Groups 1, 3 and 5 received a single administration of prepared test article by intravenous tail administration at a target dose level of 2 mg/kg and dose volume of 10 mL/kg. Each animal in Groups 2, 4 and 6 received a single administration of prepared test article by oral gavage at a target dose level of 20 mg/kg and at a dose volume of 10 mL/kg. Dosing was performed on August 13, 2015 as detailed in the study protocol and was completed without incident. Dose administration […]
Following dosing and at each sample collection time
Group Mices Test Compound Level Conc. Volume Dose Vehicle Route […]
Interim blood samples were collected in a leapfrog design from each animal by puncture of a submandibular vein and a terminal blood sample was collected from each animal by intracardiac puncture following euthanasia with CO2 as outlined in the sample collection table below.
All blood samples were transferred into tubes containing K2EDTA anticoagulant and placed on wet ice immediately after collection until centrifuged at 2200 × g for 10 min at […] to isolate plasma.
The resulting plasma was transferred to individual polypropylene tubes in a 96‐well plate format and immediately placed on dry ice until storage at nominally […] before transfer to the Test Facility’s bioanalysis group for concentration and HPLC analysis. Individual blood collection times are […]
Table S4. Sample Collections.
Collection Information Whole Blood for Plasma Whole Blood for Plasma
Subgroup A (n = 3) 5 min & 1 h post‐dose 8 h post‐dose
Subgroup B (n = 3) 15 min & 4 h post‐dose 12 h post‐dose
Subgroup C (n = 3) 30 min & 6 h post‐dose 24 h post‐dose
Subgroup D (n = 2) Not applicable 2 h post‐dose
Subgroup A (n = 3) 15 min & 2 h post‐dose 8 h post‐dose
Subgroup B (n = 3) 30 min & 4 h post‐dose 12 h post‐dose
Subgroup C (n = 3) 1 hr & 6 h post‐dose 24 h post‐dose
Collection conditions K2EDTA K2EDTA
Collection route Submandibular Intracardiac puncture
Volume/Time point 100 μL Maximum volume
The plasma samples for Groups 1‐6, Subgroups A‐C were analyzed for test article concentration using a Research Grade LC MS/MS Assay (RGA‐Level 1). The bioanalytical report, including plasma […]
Pharmacokinetic parameters were estimated from the plasma concentration‐time data using standard non‐compartmental methods and utilizing suitable analysis software (Watson 7.2 Bioanalytical LIMS, Thermo Electron Corp). Parameters were estimated using nominal sampling times relative to the start of each dose administration (within an acceptable tolerance limit).
Concentrations below the limit of quantification were excluded from the pharmacokinetic analysis.
The area under the plasma test item concentration versus time curve (AUC) was calculated using the linear‐log‐linear trapezoidal method. When practical, the terminal elimination phase of each concentration versus time curve was identified using at least the final three observed concentration values. The slope of the terminal elimination phase was determined using log linear regression on the unweighted concentration data.
Parameter Description of Parameter […]

Mnk1/2 = test system: Mnk1/2; design: method as in PMID 24504069; settings: cited from earlier work
MDA-MB-231-Luc cells = assay: Experimental lung metastasis assay; assay type: in vivo, SCID mice; settings: 20 mg/kg IP, 2 weeks, IVIS luciferase signal in lung
Procedure: The MDA-MB-231-luc cells were the kind gift of Dr. Stuart Martin (UMB). Cells were grown in DMEM with 10% FBS, hygromycin and G418 to subconfluence (~50–70%) and then trypsinized, washed, and resuspended in PBS. 1 × 10^6 cells were injected IV in a volume of 100 µL. Mice were treated for 14 days with vehicle or VNLG-152 by IP injection at doses of 20 mg/kg. The luciferase signals in the mice were detected and photographed using an IVIS in vivo image system on days 0, 1 and 14 [81].

MDA-MB-231 cells = assay: Head-to-head MTT antiproliferative assay, 6-day exposure; assay type: cell-based, human
Procedure: (§1) Figure 2 VNLG-152R inhibits mTORC1 signaling and the production of pro-inflammatory cytokines. (A) MDA-MB-231 and MDA-MB-468 cells were treated with the indicated concentrations of VNLG-152R for 72 h. Cell lysates were analyzed by immunoblotting with the indicated antibodies. (B) Head-to-head antiproliferative effects of VNLG-152R and eFT508 on MDA-MB-231 and MDA-MB-468 cells. The dose-response curves were generated from MTT assays after 6-day exposure to different concentrations of the compounds. Each point is a mean of replicates from three independent experiments. (C–E) MDA-MB-231 cell were treated with the indicated concentration of VNLG-152R or eFT508 for 72 h. Cell supernatants were collected, and the indicated cytokines were quantitated by Multiplex Luminex assay.
(§2) Cell growth inhibition assay was performed as described previously. For cell growth experiment, cells were treated with the VNLG-152R, VNLG-152E1 or VNLG-15E2 for 7 days. MTT assay was performed at the end of the experiment. Results represent the mean ± standard deviation of three independent experiments.

MDA-MB-468 cells = assay: as above; assay type: cell-based, human
Procedure: as §1, §2

Br-001 tumor xenografts = assay: Patient-derived TNBC xenograft (PDX), IP; assay type: in vivo, mice; settings: 10 mg/kg/day IP
Procedure: Female NSG (NOD.Cg-PrkdcscidIl2rgtm1Wjl/SzJ) mice (Jackson Laboratory) 5–6 weeks of age were housed under complete aseptic conditions, fed autoclaved pellets and sterile water ad libitum. Primary triple negative breast cancer tissue from a patient in University of Maryland Medical Center ([…]) was excised during surgery, de-identified and then implanted into the mammary fat pad of female NSG mice. After expansion and viable freeze back, breast PDX (Br-001) was grown in three mice as a subcutaneous tumor. When tumors reached approximately 600–800 mm^3, mice were euthanized, tumors excised aseptically and cut into 3 mm × 3 mm pieces and re-implanted subcutaneously in female NSG mice. The established xenografts were subsequently passaged from mouse to mouse to expand xenograft numbers. […] Tumors were measured and processed as described for the MDA-MB-231 xenograft model.

CC1=C(/C=C/C(C)=C/C=C/C(C)=C/C(=O)Nc2ccc(F)cc2)C(C)(C)CCC1n1ccnc1 (racemic) [VNLG-152R, 4-(±)-(1H-imidazol-1-yl)-N-(4-fluorophenyl)-(E)-retinamide]
bioavailability ([1]; PO 20 mg/kg vs IV 2 mg/kg, read-out: F (%) oral bioavailability): 121%
half-life ([1]; IV, 2 mg/kg): 1.92 h
AUC(0-inf) ([1]; IV, 2 mg/kg): 1130 ng·h/mL
half-life ([1]; PO, 20 mg/kg): 9.25 h
AUC(0-inf) ([1]; PO, 20 mg/kg): 13700 ng·h/mL
Cmax ([1]; PO, 20 mg/kg, read-out: Cmax): 3750 ng/mL
inhibition of Mnk1/2 kinase activities (Mnk1/2): no inhibition of Mnk1/2 kinase activities
inhibition of metastasis (MDA-MB-231-Luc cells): ~ 80%
GI50 (MDA-MB-231 cells): 890 nM
fold difference of GI50 (eFT508 vs VNLG-152R) (MDA-MB-231 cells): 8 fold
GI50 (MDA-MB-231 cells; Homo sapiens, MDA-MB-231, 144 h): 891 nM
GI50 (MDA-MB-468 cells): 500 nM
fold difference of GI50 (eFT508 vs VNLG-152R) (MDA-MB-468 cells): 105 fold
GI50 (MDA-MB-468 cells; Homo sapiens, MDA-MB-468, 144 h): 501 nM
changes in body weights (Br-001 tumor xenografts): No significant changes in body weights were observed
tumor growth inhibition (TGI) (Br-001 tumor xenografts; 5 days a week, 17 days): 73.3%

Reference: paper PMC6468747 (Cancers, 2019)
